Laboratory results published in publication PMC7429263 (ACS infectious diseases, 2020).
Values after ≈ are worked out from the molar mass of the structure shown. Like-named read-outs stand apart in the source and are kept apart here.

Experiments:
[1] = tested on: VanA E. faecium ATCC BAA-2317; experiment: standard microdilution antimicrobial assay; type: cell-based
VanA E. faecalis BM 4166 = experiment: standard microdilution antimicrobial assay; type: cell-based
in vivo PK in mice = conditions: iv
[2] = tested on: VanA VRE E. faecalis BM 4166 and E. faecium ATCC BAA-2317; conditions: 3 even at 100 μM; cited from earlier work
VanA VRE, 4 strains [3] = experiment: standard microdilution assay, panel of vancomycin-resistant organisms; type: cell-based, E. faecalis, E. faecium
two VanA VRE strains [4] = conditions: same two VanA VRE strains; cited from earlier work
[5] = tested on: VanA VRE E. faecalis BM 4166; conditions: BM 4166, +LTA 100 μg/mL
[6] = tested on: Sensitive S. aureus ATCC 25923; experiment: standard microdilution antimicrobial assay; type: cell-based; conditions: Staphylococcus aureus, ATCC25923
[7] = tested on: VanA VRE E. faecalis BM 4166; experiment: microbe, parasite or virus in culture; conditions: Enterococcus faecalis
[8] = tested on: VanA VRE E. faecalis BM 4166 and E. faecium ATCC BAA-2317; experiment: microdilution antimicrobial assay with added LTA or other additives; type: cell-based; conditions: 100 μg/mL LTA
[9] = tested on: VanA VRSA strain (VRS2), S. aureus; conditions: cited from earlier work
VanA E. faecium TX2465 = experiment: standard microdilution antimicrobial assay; type: cell-based; conditions: Enterococcus faecium
[10] = tested on: VanB E. faecalis ATCC 51299; experiment: standard microdilution antimicrobial assay; type: cell-based; conditions: Enterococcus faecalis, ATCC51299
[11] = D-Ala-D-Ala to D-Ala-D-Lac remodeling; cited from earlier work
[12] = tested on: VanA VRE E. faecalis BM 4166 and E. faecium ATCC BAA-2317; experiment: bacteria cell membrane permeability assay; conditions: 10 μM added at 5 min
[13] = tested on: VanA VRE E. faecium ATCC BAA-2317; type: cell-based; conditions: ATCC BAA-2317, +LTA 100 μg/mL
two VanA VRE strains [14] = experiment: multi-passage resistance development assay; type: cell-based; conditions: Enterococcus
VanA VRE, 4 strains [15] = conditions: resistant pathogens with D-Ala-D-Lac cell wall precursor; cited from earlier work
[16] = tested on: MRSA S. aureus ATCC 43300; experiment: standard microdilution antimicrobial assay; type: cell-based; conditions: Staphylococcus aureus, ATCC43300|MRSA

## CN[C@H](CC(C)C)C(=O)N[C@H]1C(=O)N[C@@H](CC(N)=O)C(=O)N[C@H]2C(=O)N[C@H]3C(=O)N[C@H](C(=O)N[C@H](C(=O)N[C@@H](CCCNC(=N)N)C(=O)O)c4cc(O)cc(O)c4-c4cc3ccc4O)[C@H](O)c3ccc(c(Cl)c3)Oc3cc2cc(c3OC2OC(CO)C(O)[C@H](O)C2O[C@H]2CC(C)(N)[C@H](O)[C@H](C)O2)Oc2ccc(cc2Cl)[C@H]1O (stereo partly shown) [Arg-vancomycin (11)]
[1]
  MIC: 63 µg/mL (≈ 39.2 µM)
VanA E. faecalis BM 4166; VanA E. faecalis BM 4166
  MIC: 63 µg/mL (≈ 39.2 µM)

## CN[C@H](CC(C)C)C(=O)N[C@H]1C(=O)N[C@@H](CC(N)=O)C(=O)N[C@H]2C(=O)NC3C(=O)N[C@H](C(=O)N[C@H](C(=O)NCCC[N+](C)(C)C)c4cc(O)cc(O)c4-c4cc3ccc4O)[C@H](O)c3ccc(c(Cl)c3)Oc3cc2cc(c3OC2OC(CO)C(O)[C@H](O)[C@@H]2O[C@H]2CC(C)(NCc3ccc(-c4ccc(Cl)cc4)cc3)[C@H](O)[C@H](C)O2)Oc2ccc(cc2Cl)[C@H]1O (stereo partly shown) [C1-CBP-vancomycin (4)]
[1]
  MIC: 0.3 µg/mL
In vivo PK in mice; 10 mg/kg
  AUC: 48.4 Mg-h/mL
  CL: 2 mL/min/kg
  Cmax: 14.5 Mg/mL
  Vss: 0.64 L/kg
  t1/2: 5.1 h
  tmax: 4.8 min
[2]
  induced cell membrane permeabilization, in words: pronounced membrane permeabilization
VanA VRE, 4 strains [3]
  improvement in antimicrobial potency compared with vancomycin: ca. 1000 fold

## CN[C@H](CC(C)C)C(=O)N[C@H]1C(=O)N[C@@H](CC(N)=O)C(=O)N[C@H]2C(=O)NC3C(=O)N[C@H](C(=O)N[C@H](C(=O)NCCC[N+](C)(C)C)c4cc(O)cc(O)c4-c4cc3ccc4O)[C@H](O)c3ccc(c(Cl)c3)Oc3cc2cc(c3OC2OC(CO)C(O)[C@H](O)[C@@H]2O[C@H]2CC(C)(N)[C@H](O)[C@H](C)O2)Oc2ccc(cc2Cl)[C@H]1O (stereo partly shown) [C1-vancomycin (3)]
[1]
  MIC: 31 µg/mL
[2]
  induced cell membrane permeabilization, in words: weaker

## CCCCCCCCCC(=O)N[C@@H](Cc1c[nH]c2ccccc12)C(=O)N[C@H](CC(N)=O)C(=O)N[C@@H](CC(=O)O)C(=O)N[C@@H]1C(=O)NCC(=O)N[C@@H](CCCN)C(=O)N[C@@H](CC(=O)O)C(=O)N[C@H](C)C(=O)N[C@@H](CC(=O)O)C(=O)NCC(=O)N[C@H](CO)C(=O)N[C@@H]([C@H](C)CC(=O)O)C(=O)N[C@@H](CC(=O)c2ccccc2N)C(=O)O[C@@H]1C [daptomycin]
Two VanA VRE strains [4]
  rate of resistance emergence, in words: raise resistance more rapidly and in a more pronounced manner than either 2 or 5

## CC(=O)NC[C@H]1CN(c2ccc(N3CCOCC3)c(F)c2)C(=O)O1 [linezolid]
Two VanA VRE strains [4]
  rate of resistance emergence, in words: raise resistance more rapidly and in a more pronounced manner than either 2 or 5

## CN(C)c1cc(NC(=O)CNC(C)(C)C)c(O)c2c1C[C@H]1C[C@H]3[C@H](N(C)C)C(O)=C(C(N)=O)C(=O)[C@@]3(O)C(O)=C1C2=O [tigecycline]
Two VanA VRE strains [4]
  rate of resistance emergence, in words: raise resistance more rapidly and in a more pronounced manner than either 2 or 5

## CN[C@H](CC(C)C)C(=O)N[C@H]1C(=O)N[C@@H](CC(N)=O)C(=O)N[C@H]2C(=O)N[C@H]3C(=O)N[C@H](C(=O)N[C@H](C(=O)O)c4cc(O)cc(O)c4-c4cc3ccc4O)[C@H](O)c3ccc(c(Cl)c3)Oc3cc2cc(c3O[C@@H]2O[C@H](CO)[C@@H](O)[C@H](O)[C@H]2O[C@H]2C[C@](C)(N)[C@H](O)[C@H](C)O2)Oc2ccc(cc2Cl)[C@H]1O [vancomycin (1), vancomycin]
[5]
  MIC: 250 µg/mL (≈ 173 µM)
[6]
  MIC: 0.5 µg/mL (≈ 0.345 µM)
[7]
  MIC: 250 µg/mL (≈ 173 µM)
[8]
  decrease of antimicrobial activity with added LTA: no difference
[9]
  activity in the thigh infection model, in words: inactive
VanA E. faecium TX2465
  MIC: 250 µg/mL (≈ 173 µM)
[10]
  MIC: 8 µg/mL (≈ 5.52 µM)
[11]
  reduction of binding affinity: 1000 fold
In vivo PK in mice
  dose proportionality of PK, in words: well behaved dose proportional PK across all parameters
[12]
  induced cell membrane permeabilization, in words: no permeabilization
[13]
  MIC: 250 µg/mL (≈ 173 µM)
Two VanA VRE strains [14]
  MIC: 250 µg/mL (≈ 173 µM)
VanA E. faecalis BM 4166; Enterococcus faecalis
  MIC: 250 µg/mL (≈ 173 µM)
VanA VRE, 4 strains [15]
  reduction of antimicrobial potency: 1000 fold
[16]
  MIC: 0.5 µg/mL (≈ 0.345 µM)
